A short description of the data set: Relaxivity of dialyzed liposomal Gd(BME-DTTA). It counts as physicochemical. Conditions: dialyzed against saline pH 7.4 with HEPES and Chelex-100. The procedure: In this comparative example, the gadolinium complex of N^3,N^6 -bis(2'-myristoyloxyethyl)-1,8-dioxo-triethylenetetraamine-N,N,N',N'-tetraacetic acid [Gd(BME-DTTA)] was prepared and used for cardiac tissue imaging. Specifically, Gd(BME-DTTA) was synthesized and incorporated into liposomes using the procedure described in the Elgavish et al. article entitled "Fatty-acyl iminopolycarboxylates; lipophilic bifunctional contrast agents for NMR imaging", Magn. Reson. Med. 1991; Vol 22; pp. 57-67.
The liposomal Gd(BME-DTTA) was dialyzed at 4° C. for 24 hours against a saline solution (pH 7.4) that contained 0.9 weight % NaCl, 20 mmol/L HEPES, and 0.5 weight % Chelex-100 to remove any weakly bound Gd ions. […] (mmol/L)^-1.

On to “gadolinium complex of N^3,N^6 -bis(2'-myristoyloxyethyl)-1,8-dioxo-triethylenetetraamine-N,N,N',N'-tetraacetic acid [Gd(BME-DTTA)]”, for which the relaxivity is given as 27.1±0.3 s^-1. (mmol/L)^-1.

Source of the values: patent US5804164A, “Water-soluble lipophilic contrast agents” (Research Corporation Technologies, Inc., priority 1996, dated 1998).
